Results taken from publication PMC5285354, “Cationic Net Charge and Counter Ion Type as Antimicrobial Activity Determinant Factors of Short Lipopeptides” (Frontiers in Microbiology, 2017).
≈ marks a conversion by molar mass, not a printed value. Where a SMILES comes first, the peptide text is derived from it. The star is where a group is joined. Myristoyl = CCCCCCCCCCCCCC(=O)*

What was measured:
Assay type in all cases: cell-based
[1] = system: Escherichia coli (ATCC 25922); settings: for MBC Escherichia coli, lipopeptides without TFA counter ion / MIC Escherichia coli / MIC Escherichia coli, lipopeptides without TFA counter ion: ATCC 25922, 18 h; for MBC Escherichia coli: ATCC 25922, 24 h
How it was run: (§1)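 CLSI broth microdilution: bacteria in Mueller-Hinton broth at 10^5 cfu/mL inoculum, 18 h at 37°C; fungi in Sabouraud Dextrose broth at 10^3 cfu/mL, 48 h at 25°C. MIC (μg/mL) is the lowest lipopeptide concentration inhibiting visible growth; triplicate on three days.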

[2] = system: Pseudomonas aeruginosa (ATCC 9027); settings: ATCC 9027, 18 h
How it was run: as §1

[3] = system: Bacillus subtilis (ATCC 6633); settings: for MIC Bacillus subtillis: ATCC 6633, 18 h; for MBC Bacillus subtillis: ATCC 6633, 24 h
How it was run: (§2)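 Broth microdilution per CLSI: Mueller-Hinton broth, 10^5 cfu/mL inoculum, 18 h at 37°C for bacteria; Sabouraud dextrose broth, 10^3 cfu/mL, 48 h at 25°C for fungi. MIC (μg/mL) is the lowest lipopeptide concentration inhibiting visible growth; MBC/MFC also determined. Triplicate on three days.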

[4] = system: Aspergillus brasiliensis (ATCC 16404); settings: ATCC 16404, 48 h
How it was run: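 Lowest lipopeptide concentration (μg/mL) with no observable growth gave the MIC, alongside MBC/MFC, by CLSI microbroth dilution. Fungi: Sabouraud dextrose broth, 10^3 cfu/mL start, 25°C for 48 h; bacteria: MH broth, 10^5 cfu/mL, 37°C for 18 h. Run in triplicate, three separate days.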

[5] = system: Enterococcus faecalis (ATCC 29212); settings: for MBC Enterococcus fecalis, lipopeptides without TFA counter ion / MIC Enterococcus fecalis / MIC Enterococcus fecalis, lipopeptides without TFA counter ion: ATCC 29212, 18 h; for MBC Enterococcus fecalis: ATCC 29212, 24 h
How it was run: as §2

[6] = system: Proteus vulgaris (PCM 2668); settings: 18 h
How it was run: as §1

[7] = system: Staphylococcus aureus (ATCC 25923); settings: for MBC Staphylococcus aureus, lipopeptides without TFA counter ion / MIC Staphylococcus aureus / MIC Staphylococcus aureus, lipopeptides without TFA counter ion: ATCC 25923, 18 h; for MBC Staphylococcus aureus: ATCC 25923, 24 h
How it was run: as §1

[8] = system: Candida tropicalis (PCM 2681); settings: PCM 2681, 48 h
How it was run: as §1

[9] = system: Klebsiella pneumoniae (ATCC 700603); settings: for MBC Klebsiella pneumoniae, lipopeptides without TFA counter ion / MIC Klebsiella pneumoniae / MIC Klebsiella pneumoniae, lipopeptides without TFA counter ion: ATCC 700603, 18 h; for MBC Klebsiella pneumoniae: ATCC 700603, 24 h
How it was run: as §1

[10] = system: Candida albicans (ATCC 10231); settings: ATCC 10231, 48 h
How it was run: as §1

[11] = system: Staphylococcus epidermidis (PCM 2118); settings: for MIC Staphylococcus epidermidis: PCM 2118, 18 h; for MBC Staphylococcus epidermidis: PCM 2118, 24 h
How it was run: as §2

[12] = system: Candida albicans (ATCC 10231)
human red blood cells = settings: 1 h
How it was run: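 Washed donor erythrocytes (4% v/v in PBS, EDTA-anticoagulated) incubated with graded lipopeptide concentrations for 1 h at 37 °C; hemoglobin release read at 550 nm in supernatants. Scaled between 0.1% Triton X-100 (100%) and PBS (0%); MHC is the lowest concentration giving 10% hemolysis.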

[13] = system: Pseudomonas aeruginosa (ATCC 9027); settings: ATCC 9027, 24 h
[14] = system: Proteus vulgaris (PCM 2668); settings: 24 h

SMILES	MBC Escherichia coli, lipopeptides without TFA counter ion [1] [µg/mL]	MIC Escherichia coli [1] [µg/mL]	MIC Escherichia coli, lipopeptides without TFA counter ion [1] [µg/mL]	MBC Escherichia coli [1] [µg/mL]	MIC Pseudomonas aeruginosa [2] [µg/mL]	MIC Bacillus subtillis [3] [µg/mL]	MBC Bacillus subtillis [3] [µg/mL]	MFC Aspergillus brasiliensis [4] [µg/mL]	MIC Aspergillus brasiliensis [4] [µg/mL]	MBC Enterococcus fecalis, lipopeptides without TFA counter ion [5] [µg/mL]	MIC Enterococcus fecalis [5] [µg/mL]	MIC Enterococcus fecalis, lipopeptides without TFA counter ion [5] [µg/mL]	MBC Enterococcus fecalis [5] [µg/mL]	MIC Proteus vulgaris [6] [µg/mL]	MBC Staphylococcus aureus, lipopeptides without TFA counter ion [7] [µg/mL]	MIC Staphylococcus aureus [7] [µg/mL]	MIC Staphylococcus aureus, lipopeptides without TFA counter ion [7] [µg/mL]	MBC Staphylococcus aureus [7] [µg/mL]	MFC Candida tropicalis [8] [µg/mL]	MIC Candida tropicalis [8] [µg/mL]	also measured
CCCCCCCCCCCCCC(=O)N[C@@H](CCCCN)C(=O)NCC(=O)N[C@@H](CCCCN)C(=O)NCC(N)=O [C14-KGKG-NH2] (Myristoyl-KGKG-NH2)	128 (≈ 214 µM)	128 (≈ 214 µM)	128 (≈ 214 µM)	128 (≈ 214 µM)	64 (≈ 107 µM)	16 (≈ 26.8 µM)	16 (≈ 26.8 µM)	128 (≈ 214 µM)	128 (≈ 214 µM)	64 (≈ 107 µM)	64 (≈ 107 µM)	64 (≈ 107 µM)	64 (≈ 107 µM)	>512	64 (≈ 107 µM)	64 (≈ 107 µM)	64 (≈ 107 µM)	128 (≈ 214 µM)	512 (≈ 856 µM)	512 (≈ 856 µM)	MBC Klebsiella pneumoniae, lipopeptides without TFA counter ion [9]: 128 µg/mL (≈ 214 µM); MIC Klebsiella pneumoniae [9]: 128 µg/mL (≈ 214 µM); MIC Klebsiella pneumoniae, lipopeptides without TFA counter ion [9]: 128 µg/mL (≈ 214 µM); MBC Klebsiella pneumoniae [9]: 128 µg/mL (≈ 214 µM); MFC Candida albicans [10]: 128 µg/mL (≈ 214 µM); MIC Candida albicans [10]: 128 µg/mL (≈ 214 µM); MIC Candida albicans, lipopeptides without TFA counter ion [10]: 256 µg/mL (≈ 428 µM); MIC Staphylococcus epidermidis [11]: 32 µg/mL (≈ 53.5 µM); MBC Staphylococcus epidermidis [11]: 32 µg/mL (≈ 53.5 µM); MFC Candida albicans, lipopeptides without TFA counter ion [12]: 256 µg/mL (≈ 428 µM); Hemolysis HC10 (MHC), concentration of lipopeptide inducing 10% of hemolysis (human red blood cells): 512 µg/mL; MBC Pseudomonas aeruginosa [13]: 128 µg/mL (≈ 214 µM); MBC Proteus vulgaris [14]: >512 µg/mL
CCCCCCCCCCCCCCCC(=O)N[C@@H](CCCCN)C(N)=O [C16-K-NH2]	512 (≈ 1330 µM)	512 (≈ 1330 µM)	512 (≈ 1330 µM)	>512	512 (≈ 1330 µM)	8 (≈ 20.9 µM)	8 (≈ 20.9 µM)	>512	>512	32 (≈ 83.4 µM)	32 (≈ 83.4 µM)	32 (≈ 83.4 µM)	64 (≈ 167 µM)	>512	128 (≈ 334 µM)	512 (≈ 1330 µM)	128 (≈ 334 µM)	512 (≈ 1330 µM)	>512	>512	MBC Klebsiella pneumoniae, lipopeptides without TFA counter ion [9]: 512 µg/mL (≈ 1330 µM); MIC Klebsiella pneumoniae [9]: 512 µg/mL (≈ 1330 µM); MIC Klebsiella pneumoniae, lipopeptides without TFA counter ion [9]: 512 µg/mL (≈ 1330 µM); MBC Klebsiella pneumoniae [9]: >512 µg/mL; MFC Candida albicans [10]: 512 µg/mL (≈ 1330 µM); MIC Candida albicans [10]: 512 µg/mL (≈ 1330 µM); MIC Candida albicans, lipopeptides without TFA counter ion [10]: 512 µg/mL (≈ 1330 µM); MIC Staphylococcus epidermidis [11]: 8 µg/mL (≈ 20.9 µM); MBC Staphylococcus epidermidis [11]: 16 µg/mL (≈ 41.7 µM); MFC Candida albicans, lipopeptides without TFA counter ion [12]: 512 µg/mL (≈ 1330 µM); Hemolysis HC10 (MHC), concentration of lipopeptide inducing 10% of hemolysis (human red blood cells): 512 µg/mL; MBC Pseudomonas aeruginosa [13]: >512 µg/mL; MBC Proteus vulgaris [14]: >512 µg/mL
CCCCCCCCCCCCCC(=O)N[C@@H](CCCCN)C(=O)N[C@@H](CCCCN)C(N)=O [C14-KK-NH2]	64 (≈ 132 µM)	64 (≈ 132 µM)	32 (≈ 66.2 µM)	128 (≈ 265 µM)	32 (≈ 66.2 µM)	4 (≈ 8.27 µM)	4 (≈ 8.27 µM)	256 (≈ 529 µM)	256 (≈ 529 µM)	32 (≈ 66.2 µM)	32 (≈ 66.2 µM)	32 (≈ 66.2 µM)	64 (≈ 132 µM)	>512	64 (≈ 132 µM)	64 (≈ 132 µM)	32 (≈ 66.2 µM)	64 (≈ 132 µM)	256 (≈ 529 µM)	256 (≈ 529 µM)	MBC Klebsiella pneumoniae, lipopeptides without TFA counter ion [9]: 128 µg/mL (≈ 265 µM); MIC Klebsiella pneumoniae [9]: 128 µg/mL (≈ 265 µM); MIC Klebsiella pneumoniae, lipopeptides without TFA counter ion [9]: 128 µg/mL (≈ 265 µM); MBC Klebsiella pneumoniae [9]: 128 µg/mL (≈ 265 µM); MFC Candida albicans [10]: 128 µg/mL (≈ 265 µM); MIC Candida albicans [10]: 128 µg/mL (≈ 265 µM); MIC Candida albicans, lipopeptides without TFA counter ion [10]: 256 µg/mL (≈ 529 µM); MIC Staphylococcus epidermidis [11]: 4 µg/mL (≈ 8.27 µM); MBC Staphylococcus epidermidis [11]: 4 µg/mL (≈ 8.27 µM); MFC Candida albicans, lipopeptides without TFA counter ion [12]: 256 µg/mL (≈ 529 µM); Hemolysis HC10 (MHC), concentration of lipopeptide inducing 10% of hemolysis (human red blood cells): 128 µg/mL; MBC Pseudomonas aeruginosa [13]: 64 µg/mL (≈ 132 µM); MBC Proteus vulgaris [14]: >512 µg/mL
CCCCCCCCCCCCCC(=O)N[C@@H](CCCCN)C(N)=O [C14-K-NH2]	128 (≈ 360 µM)	128 (≈ 360 µM)	64 (≈ 180 µM)	128 (≈ 360 µM)	128 (≈ 360 µM)	32 (≈ 90 µM)	32 (≈ 90 µM)	512 (≈ 1440 µM)	512 (≈ 1440 µM)	64 (≈ 180 µM)	64 (≈ 180 µM)	64 (≈ 180 µM)	64 (≈ 180 µM)	>512	64 (≈ 180 µM)	64 (≈ 180 µM)	64 (≈ 180 µM)	64 (≈ 180 µM)	>512	>512	MBC Klebsiella pneumoniae, lipopeptides without TFA counter ion [9]: 512 µg/mL (≈ 1440 µM); MIC Klebsiella pneumoniae [9]: 64 µg/mL (≈ 180 µM); MIC Klebsiella pneumoniae, lipopeptides without TFA counter ion [9]: 64 µg/mL (≈ 180 µM); MBC Klebsiella pneumoniae [9]: 512 µg/mL (≈ 1440 µM); MFC Candida albicans [10]: 512 µg/mL (≈ 1440 µM); MIC Candida albicans [10]: 512 µg/mL (≈ 1440 µM); MIC Candida albicans, lipopeptides without TFA counter ion [10]: 512 µg/mL (≈ 1440 µM); MIC Staphylococcus epidermidis [11]: 16 µg/mL (≈ 45 µM); MBC Staphylococcus epidermidis [11]: 16 µg/mL (≈ 45 µM); MFC Candida albicans, lipopeptides without TFA counter ion [12]: 512 µg/mL (≈ 1440 µM); Hemolysis HC10 (MHC), concentration of lipopeptide inducing 10% of hemolysis (human red blood cells): 512 µg/mL; MBC Pseudomonas aeruginosa [13]: 1000 µg/mL (≈ 2810 µM); MBC Proteus vulgaris [14]: >512 µg/mL
